Calls of active or inactive are those of the source. The calls are words filed in the database; no cut-off is given here.

For assay [1], the system named is HCT-116. The assay can be described thus: Induction of autophagy in human HCT116 cells assessed as increase in of LC3B-II level at 17 uM incubated for 24 hrs by Western blot analysis. Format: functional, cell-based.
Assay [2] concerns HCT-116. Nature of the assay: Induction of autophagy in human HCT116 cells assessed as increase in of LC3A-II level at 17 uM incubated for 24 hrs by Western blot analysis. It counts as functional, cell-based. Background: In western blotting, separated proteins are transferred to a membrane and probed.

As for `COc1cc([C@@H]2c3cc4c(cc3[C@@H](O[C@@H]3O[C@@H]5CO[C@@H](C)O[C@H]5[C@H](O)[C@H]3O)[C@H]3COC(=O)[C@H]23)OCO4)cc(OC)c1O`, the result in the assay on HCT-116 [1] and with HCT-116 [2] was Active.

The values above are taken from ChEMBL document CHEMBL4420075, “Seriniquinones, melanoma-specific anticancer agents” (2016).
